Source: patent publication US8686050B2, “Diglycidic ether derivative therapeutics and methods for their use” (British Columbia Cancer Agency Branch, priority 2008, dated 2014)
“Also recorded” adds a separate entry of the source. Where a name gives a salt, the structure may show the parent alone.

Experiments:
[1] = biological target: T1, progesterone receptor (PR) (Homo sapiens, UniProt P06401); test: PRE-luciferase reporter, steroid receptor specificity; assay type: cell-based; conditions: LNCaP cells transfected with PR, steroid 10 nM; 185-9-2 5 μg/ml, bicalutamide 10 μM
T1 construct: Cells were co-transfected with expression plasmids for full-length hGR, PRβ and the relative reporter; expressed in transfected cells; host or cells: LNCaP
T1 sequence (P06401 1-933): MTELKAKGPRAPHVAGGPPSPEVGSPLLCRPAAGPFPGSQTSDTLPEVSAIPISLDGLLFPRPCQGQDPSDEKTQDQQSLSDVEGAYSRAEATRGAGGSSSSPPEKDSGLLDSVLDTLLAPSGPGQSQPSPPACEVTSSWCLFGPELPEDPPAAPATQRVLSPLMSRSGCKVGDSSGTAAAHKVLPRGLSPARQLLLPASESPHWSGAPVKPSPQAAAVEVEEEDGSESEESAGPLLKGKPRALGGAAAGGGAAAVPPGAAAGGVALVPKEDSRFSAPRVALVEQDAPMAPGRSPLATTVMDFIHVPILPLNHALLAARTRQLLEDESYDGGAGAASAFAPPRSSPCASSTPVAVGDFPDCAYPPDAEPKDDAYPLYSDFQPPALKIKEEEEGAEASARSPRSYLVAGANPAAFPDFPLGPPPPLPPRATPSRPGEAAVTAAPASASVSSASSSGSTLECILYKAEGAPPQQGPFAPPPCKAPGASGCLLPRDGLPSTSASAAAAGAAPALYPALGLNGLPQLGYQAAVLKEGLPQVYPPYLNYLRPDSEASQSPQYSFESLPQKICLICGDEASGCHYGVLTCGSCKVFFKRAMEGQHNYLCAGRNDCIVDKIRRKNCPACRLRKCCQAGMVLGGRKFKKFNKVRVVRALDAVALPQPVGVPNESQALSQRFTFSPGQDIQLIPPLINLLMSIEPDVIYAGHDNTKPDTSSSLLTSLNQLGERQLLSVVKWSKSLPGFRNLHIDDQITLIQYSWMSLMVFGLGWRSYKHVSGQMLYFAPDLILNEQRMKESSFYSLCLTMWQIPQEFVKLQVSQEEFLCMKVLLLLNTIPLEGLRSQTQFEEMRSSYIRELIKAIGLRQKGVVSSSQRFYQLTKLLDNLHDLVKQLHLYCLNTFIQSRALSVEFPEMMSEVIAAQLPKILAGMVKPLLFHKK
Procedure: Sequence similarities of amino acids in the AR with related human steroid receptors PR and glucocorticoid receptor (GR) are significant in some domains such as the DBD. The AR NTD shares less than 15% homology with the PR and GR, but these receptors interact with some of the same proteins (eg., SRC-1 and CBP). […] Cells were co-transfected with expression plasmids for full-length hGR, PRβ and the relative reporter (i.e., pGR-Luc or PRE-E1b-Luc reporters). Cells were then treated with ethanol vehicle, dexamethasone (GR), 4-pregnene-3,20 dione (progesterone) (PR) followed by measurement of luciferase activity. […] Some antiandrogens currently used in the clinic have progestational and glucocorticoidal activities. In adult males, the role of the PR activity is unclear.

AR = biological target: T2, AR (Homo sapiens, UniProt P10275, T878A); test: AR protein in harvested LNCaP xenografts (IHC, western blot); assay type: in vivo, mice; set-up: LNCaP human prostate cancer cells express endogenous androgen receptor (AR); from tissue; host or cells: LNCaP xenografts harvested from castrated NOD-SCID mice; conditions: I.V. or I.T delivery
T2 sequence (P10275 1-920 T878A): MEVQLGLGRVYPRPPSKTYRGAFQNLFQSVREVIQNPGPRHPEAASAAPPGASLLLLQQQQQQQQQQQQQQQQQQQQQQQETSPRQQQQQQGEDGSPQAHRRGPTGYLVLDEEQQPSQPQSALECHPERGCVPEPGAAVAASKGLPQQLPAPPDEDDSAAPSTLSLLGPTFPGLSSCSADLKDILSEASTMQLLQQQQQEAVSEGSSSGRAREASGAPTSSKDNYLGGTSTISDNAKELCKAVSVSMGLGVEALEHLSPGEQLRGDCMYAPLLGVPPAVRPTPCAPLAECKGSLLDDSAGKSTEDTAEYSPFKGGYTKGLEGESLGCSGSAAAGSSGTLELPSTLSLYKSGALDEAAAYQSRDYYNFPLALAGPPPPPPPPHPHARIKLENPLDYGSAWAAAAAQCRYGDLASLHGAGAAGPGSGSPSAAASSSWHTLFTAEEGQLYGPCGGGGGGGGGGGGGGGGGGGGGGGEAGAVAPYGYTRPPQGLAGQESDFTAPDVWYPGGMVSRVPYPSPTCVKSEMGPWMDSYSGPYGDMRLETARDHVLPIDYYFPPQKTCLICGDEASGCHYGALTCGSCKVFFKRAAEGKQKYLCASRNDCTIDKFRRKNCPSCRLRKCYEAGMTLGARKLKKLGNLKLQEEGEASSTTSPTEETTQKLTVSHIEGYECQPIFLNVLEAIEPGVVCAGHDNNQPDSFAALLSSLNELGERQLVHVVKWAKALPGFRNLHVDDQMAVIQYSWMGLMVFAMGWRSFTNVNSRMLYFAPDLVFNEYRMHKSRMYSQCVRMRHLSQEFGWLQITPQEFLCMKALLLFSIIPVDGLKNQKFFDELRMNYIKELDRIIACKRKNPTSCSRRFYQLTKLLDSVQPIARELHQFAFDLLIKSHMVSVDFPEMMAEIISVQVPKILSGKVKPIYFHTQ
Procedure: Levels of cytokeratin 18 were measured as an indication of amount of epithelial cells in the xenograft samples.

CC(C)(c1ccc(OCC(O)CO)cc1)c1ccc(OCC(O)CCl)cc1 (centres unmarked) [185-9-2, BADGE.HCL.H2O]
PRE-luciferase activity in response to ligand [1]: did NOT inhibit; also recorded: does NOT inhibit
levels of AR protein in xenografts (AR): does not reduce levels of AR protein; also recorded: did not decrease levels of AR protein
